# Patent publication US20240374879A1, “METHODS AND COMPOSITIONS TO REDUCE CELLULAR DEPOSITION, AND HYDROCEPHALUS SHUNT FAILURE” (Wayne State University, priority 2021, published 2024)
# Legend:
# [1] = test system: Human astrocyte cells; test: Delivery Method: immunofluorescence (DAPI, GFAP) of astrocytes, GIT 27 attached to PDMS or in suspension; type: cell-based
# Protocol: Delivery Method: Following the nanodrop experiment, it was determined that the minimum concentration necessary to attach GIT 27 to the surface of the PDMS was 1000 μg/mL to display any attachment and release from the catheter. […] Using this concentration for sufficient surface coating, human astrocyte cells were cultured onto PDMS discs coated with GIT 27. Samples were also tested by adding GIT 27 at various concentrations in suspension within the cell culture media. Attached GIT 27 samples were conducted at concentrations 1000 and 3000 μg/mL, and for the in suspension concentrations 5, 50, and 1000 μg/mL in astrocyte media were used.
# Immunofluorescence was performed using glial fibrillary acidic protein (GFAP) and 4′,6-diamidino-2-phenylindole (DAPI) solution (ThermoFisher). GFAP primary and secondaries were diluted to a ratio of 1:1000 and 5:1000, respectfully, in 0.4% Triton-X in PBS (w/v). Samples were incubated for 24 hours in each solution. After rinsing the samples with PBS, the samples were incubated in a 1:1000 DAPI solution in 0.4% Triton X solution for 30 minutes. Samples were then imaged submerged in PBS using a confocal microscope at 20× magnification and analyzed using Imaris software.
# [2] = Solubility of GIT 27; type: physicochemical
# [3] = test system: macrophage toll-like receptor (TLR) 4 and TLR 2/6 signaling pathway; conditions: cited from earlier work
# [4] = 1000 μg/mL GIT 27 in suspension, qualitative
smiles,measurement,setting,value
"O=C(O)CC1CC(c2ccccc2)=NO1 (stereo not drawn) [GIT 27, 4,5-Dihydro-3-phenyl-5-isoxazoleacetic acid]",astrocyte cell bodies (GFAP) labeling compared to all other groups,[1]; [4],lowest amount
same,immunofluorescent total cell count (DAPI) labeling compared to all other groups,[1]; [4],lowest amount
same,GFAP levels compared to controls with no GIT 27 exposure,[1]; plasma etched samples with GIT 27 attached to the surface,increased levels
same,solubility,[2],only soluble in DMSO
same,"secretion of pro-inflammatory cytokines IL-1β, IL-10 and IFN-γ",[3],reduces
same,TNF-α secretion,[3]; macrophages,inhibits
